Data reported in PubChem BioAssay AID1259407 (Chemical Carcinogenesis Research Information System (CCRIS), 2018).
Active and inactive are the calls of the source. How the calls were made is not given here.

System: CCRIS mutagenicity, Ames/micronucleus/aberration tests
Test: CCRIS mutagenicity studies
[1] = Test System: E. COLI, Strain/Indicator: WP2 UVRA, Metabolic Activation: NONE, Method: PREINCUBATION

Measured: mutagenic call

CCCCN(N=O)C(=O)N(C)C
active: [1] active; positive | Test System: E. COLI, Strain/Indicator: WP2 UVRA, Metabolic Activation: RAT, LIVER, S-9, PHENOBARBITAL AND 5,6-BENZOFLAVONE, Method: PREINCUBATION active; positive

CC(C)CO
inactive: Test System: AMES SALMONELLA TYPHIMURIUM, Strain/Indicator: TA97, Metabolic Activation: HAMSTER, LIVER, S-9, AROCLOR 1254 (10 OR 30%), Method: PREINCUBATION inactive; negative | Test System: AMES SALMONELLA TYPHIMURIUM, Strain/Indicator: TA97, Metabolic Activation: NONE, Method: PREINCUBATION inactive; negative | Test System: AMES SALMONELLA TYPHIMURIUM, Strain/Indicator: TA97, Metabolic Activation: RAT, LIVER, S-9, AROCLOR 1254 (10 OR 30%), Method: PREINCUBATION inactive; negative | Test System: AMES SALMONELLA TYPHIMURIUM, Strain/Indicator: TA98, Metabolic Activation: HAMSTER, LIVER, S-9, AROCLOR 1254 (10 OR 30%), Method: PREINCUBATION inactive; negative | Test System: AMES SALMONELLA TYPHIMURIUM, Strain/Indicator: TA98, Metabolic Activation: NONE, Method: PREINCUBATION inactive; negative | Test System: AMES SALMONELLA TYPHIMURIUM, Strain/Indicator: TA98, Metabolic Activation: RAT, LIVER, S-9, AROCLOR 1254 (10 OR 30%), Method: PREINCUBATION inactive; negative | Test System: AMES SALMONELLA TYPHIMURIUM, Strain/Indicator: TA98, Metabolic Activation: RAT, LIVER, S-9, KC 500, Method: PREINCUBATION inactive; negative | Test System: AMES SALMONELLA TYPHIMURIUM, Strain/Indicator: TA100, Metabolic Activation: HAMSTER, LIVER, S-9, AROCLOR 1254 (10 OR 30%), Method: PREINCUBATION inactive; negative | Test System: AMES SALMONELLA TYPHIMURIUM, Strain/Indicator: TA100, Metabolic Activation: NONE, Method: PREINCUBATION inactive; negative | Test System: AMES SALMONELLA TYPHIMURIUM, Strain/Indicator: TA100, Metabolic Activation: RAT, LIVER, S-9, AROCLOR 1254 (10 OR 30%), Method: PREINCUBATION inactive; negative | Test System: AMES SALMONELLA TYPHIMURIUM, Strain/Indicator: TA100, Metabolic Activation: RAT, LIVER, S-9, KC 500, Method: PREINCUBATION inactive; negative | Test System: AMES SALMONELLA TYPHIMURIUM, Strain/Indicator: TA1535, Metabolic Activation: HAMSTER, LIVER, S-9, AROCLOR 1254 (10 OR 30%), Method: PREINCUBATION inactive; negative | Test System: AMES SALMONELLA TYPHIMURIUM, Strain/Indicator: TA1535, Metabolic Activation: NONE, Method: PREINCUBATION inactive; negative | Test System: AMES SALMONELLA TYPHIMURIUM, Strain/Indicator: TA1535, Metabolic Activation: RAT, LIVER, S-9, AROCLOR 1254 (10 OR 30%), Method: PREINCUBATION inactive; negative | Test System: AMES SALMONELLA TYPHIMURIUM, Strain/Indicator: TA1535, Metabolic Activation: RAT, LIVER, S-9, KC 500, Method: PREINCUBATION inactive; negative | Test System: AMES SALMONELLA TYPHIMURIUM, Strain/Indicator: TA1537, Metabolic Activation: HAMSTER, LIVER, S-9, AROCLOR 1254 (30%), Method: PREINCUBATION inactive; negative | Test System: AMES SALMONELLA TYPHIMURIUM, Strain/Indicator: TA1537, Metabolic Activation: NONE, Method: PREINCUBATION inactive; negative | Test System: AMES SALMONELLA TYPHIMURIUM, Strain/Indicator: TA1537, Metabolic Activation: RAT, LIVER, S-9, AROCLOR 1254 (30%), Method: PREINCUBATION inactive; negative | Test System: AMES SALMONELLA TYPHIMURIUM, Strain/Indicator: TA1537, Metabolic Activation: RAT, LIVER, S-9, KC 500, Method: PREINCUBATION inactive; negative | Test System: AMES SALMONELLA TYPHIMURIUM, Strain/Indicator: TA1538, Metabolic Activation: NONE, Method: PREINCUBATION inactive; negative | Test System: AMES SALMONELLA TYPHIMURIUM, Strain/Indicator: TA1538, Metabolic Activation: RAT, LIVER, S-9, KC 500, Method: PREINCUBATION inactive; negative | Test System: Ames Salmonella typhimurium, Strain/Indicator: TA98, Metabolic Activation: None, Method: Preincubation inactive; negative | Test System: Ames Salmonella typhimurium, Strain/Indicator: TA98, Metabolic Activation: Rat, Liver, S-9, Phenobarbital and 5,6-benzoflavone, Method: Preincubation inactive; negative | Test System: Ames Salmonella typhimurium, Strain/Indicator: TA100, Metabolic Activation: None, Method: Preincubation inactive; negative | Test System: Ames Salmonella typhimurium, Strain/Indicator: TA100, Metabolic Activation: Rat, Liver, S-9, Phenobarbital and 5,6-benzoflavone, Method: Preincubation inactive; negative | Test System: Ames Salmonella typhimurium, Strain/Indicator: TA1535, Metabolic Activation: None, Method: Preincubation inactive; negative | Test System: Ames Salmonella typhimurium, Strain/Indicator: TA1535, Metabolic Activation: Rat, Liver, S-9, Phenobarbital and 5,6-benzoflavone, Method: Preincubation inactive; negative | Test System: Ames Salmonella typhimurium, Strain/Indicator: TA1537, Metabolic Activation: None, Method: Preincubation inactive; negative | Test System: Ames Salmonella typhimurium, Strain/Indicator: TA1537, Metabolic Activation: Rat, Liver, S-9, Phenobarbital and 5,6-benzoflavone, Method: Preincubation inactive; negative | Test System: CHINESE HAMSTER V-79, Strain/Indicator: V-79 (HPRT)/6-THIOGUANINE, Metabolic Activation: NONE, Method: STANDARD PLATE inactive; negative | Test System: CHINESE HAMSTER V-79, Strain/Indicator: V-79 (HPRT)/6-THIOGUANINE, Metabolic Activation: RAT LIVER S-9, Method: STANDARD PLATE inactive; negative | [1] inactive; negative | Test System: E. COLI, Strain/Indicator: WP2 UVRA, Metabolic Activation: RAT, LIVER, S-9, KC 500, Method: PREINCUBATION inactive; negative | Test System: E. coli, Strain/Indicator: WP2uvrA/pKM101, Metabolic Activation: None, Method: Preincubation inactive; negative | Test System: E. coli, Strain/Indicator: WP2uvrA/pKM101, Metabolic Activation: Rat, Liver, S-9, Phenobarbital and 5,6-benzoflavone, Method: Preincubation inactive; negative

O[C@H]1C=Cc2ncccc2[C@@H]1O
inactive: Test System: AMES SALMONELLA TYPHIMURIUM, Strain/Indicator: TA100, Metabolic Activation: NONE, Method: STANDARD PLATE inactive; negative | Test System: AMES SALMONELLA TYPHIMURIUM, Strain/Indicator: TA100, Metabolic Activation: RAT, LIVER, S-9, AROCLOR 1254 (10 OR 20%), Method: STANDARD PLATE inactive; negative

Cc1ccc2c(c1)C(C)c1cc(C)ccc1-2
inactive: Test System: AMES SALMONELLA TYPHIMURIUM, Strain/Indicator: TA98, Metabolic Activation: RAT, LIVER, S-9, AROCLOR 1254, Method: STANDARD PLATE inactive; negative | Test System: AMES SALMONELLA TYPHIMURIUM, Strain/Indicator: TA100, Metabolic Activation: RAT, LIVER, S-9, AROCLOR 1254, Method: STANDARD PLATE inactive; negative

Cc1cc(N=Nc2ccccc2C)c(N)cc1N
inactive: Test System: AMES SALMONELLA TYPHIMURIUM, Strain/Indicator: TA100, Metabolic Activation: HUMAN, LIVER, S-9, Method: PREINCUBATION inactive; negative
active: Test System: AMES SALMONELLA TYPHIMURIUM, Strain/Indicator: TA100, Metabolic Activation: RAT, LIVER, S-9, BETA-NAPHTHOFLAVONE, Method: PREINCUBATION active; positive | Test System: AMES SALMONELLA TYPHIMURIUM, Strain/Indicator: TA100, Metabolic Activation: RAT, LIVER, S-9, PHENOBARBITAL, Method: PREINCUBATION active; positive | Test System: AMES SALMONELLA TYPHIMURIUM, Strain/Indicator: TA100, Metabolic Activation: RAT, LIVER, S-9, Method: PREINCUBATION active; positive | Test System: UDS RODENT HEPATOCYTES, Strain/Indicator: THY INCORP, Metabolic Activation: NONE, Method: AUTORADIOGRAPHY active; positive
